This note sets out measurements from patent publication US20210322508A1, “PEPTIDES AND COMPOSITIONS FOR TARGETED TREATMENT AND IMAGING” (SIGNABLOK, INC., priority 2018, published 2021).

Molecules are shown by their SMILES. Residues, ends and D or L forms follow the SMILES beside them.

Assay [1] has as its system LPS-stimulated macrophages. Nature of the assay: cytokine production by LPS-stimulated macrophages. In kind it is cell-based, murine. The conditions noted are these: 24 h at 37° C.; for cytokine release by LPS-stimulated macrophages in the presence of HDL: with HDL. The method, then: FIG. 33 presents exemplary data showing cytokine production by LPS-stimulated macrophages incubated for 24 h at 37° C. with GF9, G-TE21, G-HV21 and G-KV21 in the presence of HDL.

In assay [2] the test system is LPS-challenged mice. In words: cytokine production in LPS-challenged mice. Type of assay: in vivo. Particulars: treated 1 h before LPS challenge. Here is the method:
Control peptide represents an equimolar mixture of two peptides, each of them comprising two amino acid domains A and B where domain A represents a non-functional 9 amino acids-long sequence of the TREM-1 inhibitory therapeutic peptide sequence wherein, Lys5 is substituted with Ala5, whereas domain B is a sulfoxidized methionine residue-containing 22 amino acids-long apolipoprotein A-I helix 4 or 6 peptide sequence, respectively. *, P=0.01 to 0.05 as compared with animals treated with 5 mg/kg TRIOPEP in free form; ***, P=0.0001 to 0.001 as compared with PBS-treated animals.

Assay [3] deals with LPS-challenged mice. In words: survival of LPS-challenged (septic shock) mice. Type of assay: in vivo. Particulars: vs vehicle. From the text:
FIG. 15B. **, P=0.001 to 0.01 as compared with vehicle-treated animals.

Assay [4] relates to human non-small cell lung cancer H292 xenograft. In words: H292 xenograft mouse model. Type of assay: in vivo, mice. The conditions noted are these: vs vehicle. An excerpt: (§1) PTX, paclitaxel. ****, P<0.0001 as compared with vehicle-treated animals.
(§2) PTX, paclitaxel. ****, p<0.0001 as compared with vehicle-treated animals.
(§3) Abbreviations: PTX, paclitaxel; PBS, phosphate-buffer saline.

Assay [5] has as its system human non-small cell lung cancer A549 xenograft. In kind it is in vivo. The conditions noted are these: vs vehicle; for tumor growth: PTX 20 mg/kg as comparator. The method, then: as §1, §2, §3
Treatment persisted for 21 days. Mean tumor volumes are calculated and plotted. Body weighs are plotted.

The test system of assay [6] is AsPC-1, BxPC-3 and Capan-1 xenograft tumors. Nature of the assay: Human PC xenograft mouse models: tumor growth, survival, tolerability. Type of assay: in vivo. The conditions noted are these: free peptides i.p. once daily 5 days per week at indicated doses. The method, then:
(§4) Mice were monitored daily and tumor measurements were taken along the length and width using Vernier calipers twice weekly until sacrifice. Tumor volumes were calculated using a modified ellipsoidal formula: (Length×Width^2)/2.
Results are expressed as the mean±SEM.
as §4
Mice were monitored daily and tumor measurements were taken along the length and width using Vernier calipers twice weekly until sacrifice.

For assay [7], the system named is TNF-alpha, IL-1beta and IL-6. Nature of the assay: LPS-induced endotoxemia: in vivo serum cytokine release. Set-up: species or system mouse. The conditions noted are these: free peptides, at this dose; serum 90 min after 30 mg/kg LPS. The method, then:
(§5) One hour later, mice received i.p. injection of 30 mg/kg LPS from E. coli 055:B5 (Sigma). In some experiments, all formulations were i.p. administered 1 and 3 h after LPS injection. The viability of mice was examined hourly. Body weights were measured daily. In all of the animal experiments, blood samples were collected via a sub-mandibular (cheek) bleed at 90 min after administration of LPS. Statistical analysis of survival curves was performed by the Kaplan-Meier test. Comparisons were made using two-tailed Student's t test. The production of cytokines in serum was measured by a standard sandwich cytokine ELISA procedure using TNF-alpha, IL-1beta and IL-6 ELISA kits (Pierce Biotechnology, Thermo Scientific, Rockford, Ill.) according to the instructions of the manufacturer. Statistical significances in cytokine analysis ELISA data were determined by two-tailed Student's t test.
(§6) Naïve, female C57BL/6 mice at 8 to 10 weeks of age (18 to 21 g) from the Jackson Laboratory were randomly grouped (10 mice per group) and i.p. injected with vehicle or the indicated doses of dexamethasone (DEX), GF9, G-TE21, G-HV21 and G-KV21. One hour later, mice received i.p. injection of 30 mg/kg LPS from E. coli 055:B5 (Sigma). […] Body weights were measured daily. […] Statistical significances in cytokine analysis ELISA data were determined by two-tailed Student's t test.

Assay [8] deals with C57BL/6 mice with LPS-induced septic shock. Nature of the assay: LPS-induced septic shock: survival. Type of assay: in vivo, mouse. Particulars: free peptides, at this dose; 30 mg/kg LPS i.p. The method, then:
as §5, §6

Assay [9] relates to J774A.1 macrophages. Nature of the assay: In vitro macrophage endocytosis of fluorescent peptides with or without HDL. In kind it is cell-based, mouse. The conditions noted are these: for receptors mediating in vitro macrophage endocytosis: pre-incubated with HDL, fucoidan, BLT-1, cytochalasin D; for in vitro macrophage endocytosis, effect of pre-incubation with HDL: rho B-labeled peptides, 1 mg/ml HDL. The method, then: The BALB/c murine macrophage cell line J774A.1 (ATCC TIB-67) were obtained from the American Type Culture Collection (ATCC, Manassas, Va.). The macrophage cells were cultured at 37° C. with 5% CO2 in Dulbecco's modified Eagle's medium (DMEM) (Cellgro, Mediatech Inc, Manassas, Va.) with 2 mM glutamine, 100 U/ml penicillin, 0.1 mg/ml streptomycin, and 10% fetal bovine serum (FBS) (Cellgro, Mediatech Inc, Manassas, Va.) and grown to approximately 90% of confluence in 6-well tissue culture plates (Corning, Tewksbury, Mass.). Cells were incubated for varied time periods from 4 to 24 h at 37° C. with fluorescently labeled peptides (pre-incubated with 1 mg/ml HDL) at a concentration of 4 μM rhodamine B (rho-B). After incubation, cells were washed twice with PBS and lysed using Promega passive lysis buffer (Promega, Madison, Wis.). The rho B fluorescence was measured in the lysates with a 540 nm excitation and a 590 nm emission filters using the Gemini EM fluorescence microplate reader (Molecular Devices, Sunnyvale, Calif.). The protein concentration in the lysates was determined using the Bradford reagent (Bio-Rad, Richmond, Calif.) and the SpectraMax 190 microplate reader (Molecular Devices, Sunnyvale, Calif.).
In one embodiment, after reaching target confluency, cells were incubated for 1 h in medium with or without fucoidan (400 μg/mL), BLT-1 (10 μM) or cytochalasin D (40 μM), Cells were subsequently incubated for 4 h and 22 h at 37° C. in medium containing 2 μM of rho B-labeled peptides G-KV21 and G-HV21 (as calculated for rho B) that were pre-incubated with 1 mg/ml HDL. After incubation, cells were washed twice with PBS and lysed using Promega passive lysis buffer. The rho B fluorescence and protein concentration were measured in the lysates as described above.

With `CC(C)C[C@H](NC(=O)[C@H](Cc1ccccc1)NC(=O)CN)C(=O)N[C@@H](CO)C(=O)N[C@@H](CCCCN)C(=O)N[C@@H](CO)C(=O)N[C@@H](CC(C)C)C(=O)N[C@H](C(=O)N[C@@H](Cc1ccccc1)C(=O)N[C@@H](Cc1c[nH]c2ccccc12)C(=O)N[C@@H](CCC(N)=O)C(=O)N[C@@H](CCC(=O)O)C(=O)N[C@@H](CCC(=O)O)C(=O)N[C@@H](CC[S+](C)[O-])C(=O)N[C@@H](CCC(=O)O)C(=O)N[C@@H](CC(C)C)C(=O)N[C@@H](Cc1ccc(O)cc1)C(=O)N[C@@H](CCCNC(=N)N)C(=O)N[C@@H](CCC(N)=O)C(=O)N[C@@H](CCCCN)C(=O)N[C@H](C(=O)O)C(C)C)C(C)C` (some centres unmarked) [G-KV21] (HELM PEPTIDE1{G.F.L.S.K.S.L.V.F.W.Q.E.E.[CS(=O)CC[C@H](N[*:1])C(=O)[*:2]].E.L.Y.R.Q.K.V}$$$$V2.0), the “cytokine release by LPS-stimulated macrophages in the presence of HDL” value in [1] is reported as “significantly inhibit the cytokine release”. Also, in assay [2], the “TNF-alpha, IL-6 and IL-1beta production in mice at 90 min post LPS challenge” value is recorded as “significantly inhibit the LPS-induced cytokine release”. Also, in assay [3], the “survival of LPS-challenged mice” value is reported as “significantly improve survival”. The tumor growth entry is given as “significantly inhibit the tumor growth” in assay [4], “significantly inhibit the tumor growth” in assay [5] and “inhibit tumor growth in three human PC xenograft mouse models” in [6]. The average tumor weights result in [5] is listed as “significantly decrease the tumor weight”. In addition, in assay [7], the “LPS-stimulated cytokine production in vivo” value is “inhibit LPS-stimulated cytokine production in vivo”. The “protection from LPS-induced septic shock / survival” value in [8] was “protect mice from LPS-induced septic shock and prolongs survival of septic mice”. Besides, the “receptors mediating in vitro macrophage endocytosis” value in [9] is “mediated with scavenger receptors (SR) A (SR-A) and BI (SR-B1) with SR-A being the predominant mediator”. Moreover, the “in vitro macrophage endocytosis, effect of pre-incubation with HDL” value in assay [9] is recorded as “enhances in vitro macrophage endocytosis”.

For the compound `CC(C)C[C@H](NC(=O)[C@H](Cc1ccccc1)NC(=O)CN)C(=O)N[C@@H](CO)C(=O)N[C@@H](CCCCN)C(=O)N[C@@H](CO)C(=O)N[C@@H](CC(C)C)C(=O)N[C@H](C(=O)N[C@@H](Cc1ccccc1)C(=O)NCC(=O)N[C@@H](CCC(=O)O)C(=O)N[C@@H](CCC(=O)O)C(=O)N[C@@H](CC[S+](C)[O-])C(=O)N[C@@H](CCCNC(=N)N)C(=O)N[C@@H](CC(=O)O)C(=O)N[C@@H](CCCNC(=N)N)C(=O)N[C@@H](C)C(=O)N[C@@H](CCCNC(=N)N)C(=O)N[C@@H](C)C(=O)N[C@@H](Cc1c[nH]cn1)C(=O)N[C@H](C(=O)O)C(C)C)C(C)C` (some centres unmarked) [G-HV21] (HELM PEPTIDE1{G.F.L.S.K.S.L.V.F.G.E.E.[CS(=O)CC[C@H](N[*:1])C(=O)[*:2]].R.D.R.A.R.A.H.V}$$$$V2.0), in [1], the “cytokine release by LPS-stimulated macrophages in the presence of HDL” value is reported as “significantly inhibit the cytokine release”. Also, in assay [1] (without HDL), the “cytokine production by LPS-stimulated macrophages in the absence of HDL” value was “does not affect the cytokine production”. In addition, the “TNF-alpha, IL-6 and IL-1beta production in mice at 90 min post LPS challenge” value in assay [2] is on record as “significantly inhibit the LPS-induced cytokine release”. Also, the “survival of LPS-challenged mice” value in assay [3] is given as “significantly improve survival”. The tumor growth result in assay [4] is listed as “significantly inhibit the tumor growth”. In addition, in assay [5], the average tumor weights result was “significantly decrease the tumor weight” and the tumor growth result is on record as “significantly inhibit the tumor growth”. For the same compound, in assay [6], the tumor growth entry was “inhibit tumor growth in three human PC xenograft mouse models”. In addition, the “LPS-stimulated cytokine production in vivo” value in assay [7] is on record as “inhibit LPS-stimulated cytokine production in vivo”. In addition, in assay [8], the “protection from LPS-induced septic shock / survival” value is “protect mice from LPS-induced septic shock and prolongs survival of septic mice”. In [9], the “receptors mediating in vitro macrophage endocytosis” value was “mediated with scavenger receptors (SR) A (SR-A) and BI (SR-B1) with SR-A being the predominant mediator”; the “in vitro macrophage endocytosis, effect of pre-incubation with HDL” value was “enhances in vitro macrophage endocytosis”.
